Data taken from US8481500B2, “Compounds having neuroprotective properties” (Universidad del Pais Vasco, priority 2005, dated 2013).
“Also recorded” adds a separate entry of the source.

Tests used:
[1] = tested on: transient cerebral ischemia; experiment: NeuN+ cell count in the pyramidal layer of CA1 hippocampus after transient cerebral ischemia; type: in vivo, Sprague-Dawley rats; conditions: 7 and 70 days after ischemia; compared with placebo; i.p. 10 mg/kg, then 5 mg/kg every 12 hours for 7 days
Method: (§1) Four experimental groups of Sprague-Dawley rats (each group contained 20 animals) were randomly selected: control (C), ischemic (ISCH), ischemic animals treated with mangiferin (I+MNG), and ischemic animals treated with morin (I+MOR). Transient cerebral ischemia was induced by means of occlusion of the vertebral and common carotid arteries for 10 minutes. The criteria for determining cerebral ischemia were the bilateral loss of stretch reflex, limb stiffness and mydriasis. The rectal and body temperature was maintained at 37° C. during surgery and the ischemia. […] The group of control animals was treated similarly to the group with ischemia, but none of their common carotid arteries was occluded.
Mangiferin and morin were administered intraperitoneally at a concentration of 10 mg/kg of body weight, 30 minutes after the ischemic stimulus and then at a concentration of 5 mg/kg every 12 hours for 7 days. […]
The number of positive NeuN cells was quantified in the pyramidal layer of the CA1 hippocampus in control rats and operated rats, and in animals subjected to transient cerebral ischemia 7 and 70 days after the reperfusion (n=4-5 animals for every experimental group). The amounts were collected both from the left and the right hemisphere of each section analyzed by immunohistochemistry, with two sections for every experiment from at least three independent experiments. […]

[2] = tested on: superoxide production in the CA1 hippocampus region; experiment: Superoxide production in the CA1 hippocampus region after transient cerebral ischemia; type: in vivo, Sprague-Dawley rats; conditions: 1 day after transient global ischemia; i.p. 10 mg/kg 30 minutes after ischemia, then 5 mg/kg every 12 hours
Method: as §1
(§2) Mangiferin and morin were administered intraperitoneally at a concentration of 10 mg/kg of body weight, 30 minutes after the ischemic stimulus and then at a concentration of 5 mg/kg every 12 hours for 7 days.
The method described by Chan et al., 1998 (J Neurosci 18: 8292-99) was followed. […] The fluorescence was examined in cryostat sections (10 μm) and was analyzed with a fluorescence microscope (Zeiss Axiophot). The images were taken with a digital camera (Axio Vision, Zeiss) and analyzed with the Image Pro Plus program.

[3] = tested on: transient cerebral ischemia; experiment: Classically conditioned eyelid responses after global ischemia; type: in vivo, Sprague-Dawley rats; conditions: rats subjected to global ischemia; 10 conditioning sessions
Method: as §1, §2
The study of the eyelid responses by means of classic conditioning was carried out in 10 Sprague-Dawley rats per experimental group. Each animal was anesthetized with ketamine (100 mg/kg) and xylazine (20 mg/kg). […]
A quantitative analysis of the classically conditioned eyelid responses from […] (C, dotted line) and mice with ischemia (ISCH, circles), and from mice with ischemia treated with mangiferin (I+MNG, squares) or morin (I+MOR, triangles), is shown in FIG. 4. […]

oligodendrocyte cultures = experiment: Oligodendrocyte culture death caused by AMPA; type: cell-based; conditions: AMPA 10 μM for 5 minutes; polyphenol 10-100000 nM added 24 hours before; read 24 hours later
Method: The oligodendrocyte cultures were in turn incubated with AMPA [(RS)-α-amino-3-hydroxy-5-methyl-4-isoxazolepropionic hydrobromic acid] agonists, at a 10 μM concentration for 5 minutes. The polyphenols, mangiferin and morin, were added 24 hours before the exposure of the agonist and until the end of the experiments at concentrations comprised between 10 and 100000 nM, and cell viability was measured by means of calcein fluorimetry 24 hours later. The values shown in FIG. 1B show the percentage of normalized cell death±S.E.M. of the triplicates according to the logarithm of the concentration from three different experiments. *: p<0.05; **: p<0.01.

[4] = tested on: neuron cultures from the brain cortex; experiment: Excitotoxic neuronal death in neuron cultures (glutamate or NMDA); type: cell-based, Sprague Dawley rat; conditions: glutamate or NMDA 50 μM for 10 minutes; antioxidant 100 nM, kept 3 hours; p<0.001 vs agonist only
Method: The neuron cultures were obtained from the brain cortex of Sprague Dawley rat embryos of 18 days of gestation (Larm et al., 1996, Eur J Pharmacol 314: 249-54; Cheung et al., 1998, Neuropharmacol 37: 1419-29). The cells were nourished Neurobasal medium supplemented with B27 supplement (Invitrogen).
The glutamate or NMDA (N-methyl-D-aspartate) agonists were applied, both at a concentration of 50 μM, for 10 minutes. The antioxidants, morin and mangiferin, were added during the exposure of the agonist at a concentration of 100 nM and were maintained in the medium for 3 hours until cell viability was measured by means of fluorescein diacetate. […] The values are shown as the mean±S.E.M. of the quadruplicates from 3-4 different experiments.

Compound	number of NeuN+ cells in the pyramidal layer of the CA1 hippocampus [1]	fluorescence levels emitted by oxidized hydroethidine in neurons of the pyramidal layer of the CA1 region [2]	learning capacity (conditioned eyelid responses) [3]	oligodendroglial death induced by excitotoxic stimuli (cell viability by calcein fluorimetry) (oligodendrocyte cultures)	excitotoxic neuronal death (cell viability by fluorescein diacetate) [4]
morin	larger; also recorded: significant increase of positive NeuN^+ cells	reduction	conserve the learning capacity	protect from neuronal and oligodendroglial death	significantly attenuates excitotoxic neuronal death
O=c1c2cc(O)c(O)cc2oc2cc(O)c([C@@H]3O[C@H](CO)[C@@H](O)[C@H](O)[C@H]3O)c(O)c12 [mangiferin]	larger; also recorded: significant increase of positive NeuN^+ cells	reduction	conserve the learning capacity	protect from neuronal and oligodendroglial death	significantly attenuates excitotoxic neuronal death
